The values below come from patent publication US20050234046A1 (Kalypsys, Inc., priority 2004, published 2005).

The pEC50 is the negative decadic logarithm of the EC50, by convention in mol/L. High values mean a small EC50, low ones a large EC50.

Molecules are shown by their SMILES. pEC50: −log10 of the molar value. Some results are limits rather than exact numbers.

Common to all, as to experiment: Transient transfection (transactivation) assay in CV-1 cells, GAL4-PPAR chimera, luciferase reporter
Holding throughout (type): cell-based
Background: Reporter assays use an easily measured gene product as a stand-in for the process of interest.

In one test the target is T1, PPAR alpha (Homo sapiens, UniProt Q07869).
T1 construct: expressed in transfected cells; host or cells: CV-1 cells
T1 sequence (Q07869 239-466 limits assumed): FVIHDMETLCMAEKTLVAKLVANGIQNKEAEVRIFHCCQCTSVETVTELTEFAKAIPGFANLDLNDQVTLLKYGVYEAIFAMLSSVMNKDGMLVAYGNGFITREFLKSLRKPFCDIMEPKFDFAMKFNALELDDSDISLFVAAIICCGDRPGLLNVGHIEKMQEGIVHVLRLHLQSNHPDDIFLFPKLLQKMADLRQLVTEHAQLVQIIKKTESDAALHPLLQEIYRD
A digest of the protocol: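 GAL4 DNA-binding domain fused to PPAR ligand binding domain, co-transfected into CV-1 cells with a luciferase reporter carrying four or five GAL4 sites. Replated cells in phenol-red free DME with 5% delipidated calf serum were treated with compound or 1% DMSO for 20-24 hours; luciferase read for EC50 and efficacy.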

For a further test, the target named is T2, PPAR delta (Homo sapiens, UniProt Q03181).
T2 construct: expressed in transfected cells; host or cells: CV-1 cells
T2 sequence (Q03181 211-439 limits assumed): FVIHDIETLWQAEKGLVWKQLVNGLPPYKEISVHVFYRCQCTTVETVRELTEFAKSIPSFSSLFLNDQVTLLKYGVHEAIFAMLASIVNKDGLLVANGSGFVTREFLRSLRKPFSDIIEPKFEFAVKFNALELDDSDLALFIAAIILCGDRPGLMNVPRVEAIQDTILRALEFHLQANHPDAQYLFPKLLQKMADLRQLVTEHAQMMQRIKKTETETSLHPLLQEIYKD

The target in the next test is T3, PPAR gamma (Homo sapiens, UniProt P37231).
T3 construct: expressed in transfected cells; host or cells: CV-1 cells
T3 sequence (P37231 238-503 limits assumed): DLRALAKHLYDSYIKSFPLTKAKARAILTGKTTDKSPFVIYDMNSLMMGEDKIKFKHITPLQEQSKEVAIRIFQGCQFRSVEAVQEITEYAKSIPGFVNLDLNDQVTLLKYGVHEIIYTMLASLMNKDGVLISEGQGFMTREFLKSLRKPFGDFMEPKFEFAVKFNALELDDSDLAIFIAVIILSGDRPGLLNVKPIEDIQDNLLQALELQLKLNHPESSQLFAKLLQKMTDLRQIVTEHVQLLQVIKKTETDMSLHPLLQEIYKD

For the molecule `O=C(O)Cc1cccc(S(=O)(=O)N2CCN(C3CCCCC3)CC2)c1` [Example 130, [3-(4-Cyclohexyl-piperazine-1-sulfonyl)-phenyl]-acetic acid], the pEC50 at PPAR alpha is less than 4.00; on PPAR delta, less than 4.00; at PPAR gamma it was 4.00 to 5.30.
Regarding `Cc1ccc(C)c(N2CCN(S(=O)(=O)c3cccc(CC(=O)O)c3)CC2)c1` [Example 131, {3-[4-(2,5-Dimethyl-phenyl)-piperazine-1-sulfonyl]-phenyl}-acetic acid], the pEC50 at PPAR alpha was less than 4.00; on PPAR delta, 4.00 to 5.30; at PPAR gamma it was 4.00 to 5.30.
On to `O=C(O)Cc1cccc(S(=O)(=O)N2CCN(CC3CCCCC3)CC2)c1` [Example 132, [3-(4-Cyclohexylmethyl-piperazine-1-sulfonyl)-phenyl]-acetic acid], for which the values for the negative-log EC50 (pEC50) on PPAR alpha, at PPAR delta and on PPAR gamma were less than 4.00, less than 4.00 and 4.00 to 5.30, respectively.
For `N#Cc1ccccc1N1CCN(S(=O)(=O)c2cccc(CC(=O)O)c2)CC1` [Example 133, {3-[4-(2-Cyano-phenyl)-piperazine-1-sulfonyl]-phenyl}-acetic acid], the pEC50 on PPAR alpha, on PPAR delta and on PPAR gamma was less than 4.00 each time.
For the molecule `O=C(O)Cc1cccc(S(=O)(=O)N2CCN(C(c3ccccc3)c3ccc(Cl)cc3)CC2)c1` (stereo not drawn) [Example 134, (3-{4-[(4-Chloro-phenyl)-phenyl-methyl]-piperazine-1-sulfonyl}-phenyl)-acetic, acid], the pEC50 was less than 4.00 on PPAR alpha, less than 4.00 at PPAR delta and 4.00 to 5.30 at PPAR gamma.
With `O=C(O)Cc1cccc(S(=O)(=O)N2CCN(c3ccc([N+](=O)[O-])cc3)CC2)c1` [Example 135, {3-[4-(4-Nitro-phenyl)-piperazine-1-sulfonyl]-phenyl}-acetic acid], the pEC50 at PPAR alpha was less than 4.00; on PPAR delta it was 4.00 to 5.30; on PPAR gamma it was less than 4.00.
In the case of `O=C(O)Cc1cccc(S(=O)(=O)N2CCN(C(=O)c3ccco3)CC2)c1` [Example 136, {3-[4-(Furan-2-carbonyl)-piperazine-1-sulfonyl]-phenyl}-acetic acid], the pEC50 on PPAR alpha, on PPAR delta and on PPAR gamma was less than 4.00 in each case.
In the case of `COc1cccc(N2CCN(S(=O)(=O)c3cccc(CC(=O)O)c3)CC2)c1` [Example 137, {3-[4-(3-Methoxy-phenyl)-piperazine-1-sulfonyl]-phenyl}-acetic acid], the negative logarithm of the EC50 (pEC50) on PPAR alpha, on PPAR delta and on PPAR gamma was less than 4.00 each time.
For `O=C(O)Cc1cccc(S(=O)(=O)N2CCN(C(c3ccc(F)cc3)c3ccc(F)cc3)CC2)c1` [Example 138, (3-{4-[Bis-(4-fluoro-phenyl)-methyl]-piperazine-1-sulfonyl}-phenyl)-acetic acid], the pEC50 on PPAR alpha is less than 4.00; at PPAR delta, less than 4.00; at PPAR gamma, 4.00 to 5.30.
Consider `O=C(O)Cc1cccc(S(=O)(=O)N2CCN(c3cccc(Cl)c3)CC2)c1` [Example 139, {3-[4-(3-Chloro-phenyl)-piperazine-1-sulfonyl]-phenyl}-acetic acid], for which the values for the pEC50 at PPAR alpha, at PPAR delta and on PPAR gamma were less than 4.00, 4.00 to 5.30 and 4.00 to 5.30, respectively.
For the molecule `O=C(O)Cc1cccc(S(=O)(=O)N2CCN(c3ccccc3Cl)CC2)c1` [Example 140, {3-[4-(2-Chloro-phenyl)-piperazine-1-sulfonyl]-phenyl}-acetic acid], the negative-log EC50 (pEC50) on PPAR alpha, at PPAR delta and at PPAR gamma was less than 4.00 throughout.
Turning to `O=C(O)Cc1cccc(S(=O)(=O)N2CCN(c3ccccc3F)CC2)c1` [Example 141, {3-[4-(2-Fluoro-phenyl)-piperazine-1-sulfonyl]-phenyl}-acetic acid], the pEC50 on PPAR alpha was less than 4.00; at PPAR delta, 4.00 to 5.30; on PPAR gamma, less than 4.00.
Turning to `CCOc1ccccc1N1CCN(S(=O)(=O)c2cccc(CC(=O)O)c2)CC1` [Example 142, {3-[4-(2-Ethoxy-phenyl)-piperazine-1-sulfonyl]-phenyl}-acetic acid], the pEC50 at PPAR alpha, at PPAR delta and at PPAR gamma was less than 4.00 throughout.
Take `O=C(O)Cc1cccc(S(=O)(=O)N2CCN(C/C=C/c3ccccc3)CC2)c1` [Example 143, {3-[4-(3-Phenyl-allyl)-piperazine-1-sulfonyl]-phenyl}-acetic acid]: the pEC50 was 4.00 to 5.30 on PPAR alpha, 4.00 to 5.30 at PPAR delta and less than 4.00 on PPAR gamma.
As to `O=C(O)Cc1cccc(S(=O)(=O)N2CCN(c3ccc(F)cc3)CC2)c1` [Example 144, {3-[4-(4-Fluoro-phenyl)-piperazine-1-sulfonyl]-phenyl}-acetic acid], the negative-log EC50 (pEC50) on PPAR alpha was less than 4.00; on PPAR delta it was 4.00 to 5.30; on PPAR gamma, 4.00 to 5.30.
As for `O=C(O)Cc1cccc(S(=O)(=O)N2CCN(c3ccccc3)CC2)c1` [Example 145, [3-(4-Phenyl-piperazine-1-sulfonyl)-phenyl]-acetic acid], the pEC50 at PPAR alpha is less than 4.00; at PPAR delta it was 4.00 to 5.30; at PPAR gamma it was less than 4.00.
Turning to `O=C(O)Cc1cccc(S(=O)(=O)N2CCN(C(c3ccccc3)c3ccccc3)CC2)c1` [Example 146, [3-(4-Benzhydryl-piperazine-1-sulfonyl)-phenyl]-acetic acid], the negative logarithm of the EC50 (pEC50) at PPAR alpha was less than 4.00; at PPAR delta, less than 4.00; on PPAR gamma it was 4.00 to 5.30.
`Cc1ccc(CC(=O)O)cc1S(=O)(=O)N1CCN(c2ccc(Cl)cc2)CC1` [Example 147, {3-[4-(4-Chloro-phenyl)-piperazine-1-sulfonyl]-4-methyl-phenyl}-acetic acid]: the pEC50 on PPAR alpha was less than 4.00; at PPAR delta it was more than 5.30; on PPAR gamma it was 4.00 to 5.30.
In the same order, the values of `Cc1ccc(N2CCN(S(=O)(=O)c3cc(CC(=O)O)ccc3C)CC2)c(C)c1` [Example 148, {3-[4-(2,4-Dimethyl-phenyl)-piperazine-1-sulfonyl]-4-methyl-phenyl}-acetic acid] are less than 4.00, less than 4.00 and less than 4.00.
In the same order, the values of `Cc1cccc(N2CCN(S(=O)(=O)c3cc(CC(=O)O)ccc3C)CC2C)c1` (stereo not drawn) [Example 149, [4-Methyl-3-(3-methyl-4-m-tolyl-piperazine-1-sulfonyl)-phenyl]-acetic acid] are less than 4.00, less than 4.00 and 4.00 to 5.30.
In the same order, the values of `Cc1ccc(N2CCN(S(=O)(=O)c3cc(CC(=O)O)ccc3C)CC2)cc1C` [Example 150, {3-[4-(3,4-Dimethyl-phenyl)-piperazine-1-sulfonyl]-4-methyl-phenyl}-acetic acid] are less than 4.00, 4.00 to 5.30 and 4.00 to 5.30.
For `Cc1ccc(Cl)cc1N1CCN(S(=O)(=O)c2cc(CC(=O)O)ccc2C)CC1` [Example 151, {3-[4-(5-Chloro-2-methyl-phenyl)-piperazine-1-sulfonyl]-4-methyl-phenyl}-acetic acid], the pEC50 was less than 4.00 on PPAR alpha, less than 4.00 on PPAR delta and 4.00 to 5.30 on PPAR gamma.
Turning to `Cc1ccc(CC(=O)O)cc1S(=O)(=O)N1CCN(CCc2ccccc2)CC1` [Example 152, [4-Methyl-3-(4-phenethyl-piperazine-1-sulfonyl)-phenyl]-acetic acid], the pEC50 is less than 4.00 at PPAR alpha, less than 4.00 at PPAR delta and 4.00 to 5.30 at PPAR gamma.
Regarding `Cc1ccc(CC(=O)O)cc1S(=O)(=O)N1CCN(c2ccc(C#N)cc2)CC1` [Example 153, {3-[4-(4-Cyano-phenyl)-piperazine-1-sulfonyl]-4-methyl-phenyl}-acetic acid], the pEC50 on PPAR alpha, on PPAR delta and on PPAR gamma was less than 4.00 in each case.
Take `Cc1ccc(CC(=O)O)cc1S(=O)(=O)N1CCN(Cc2ccc(F)cc2)CC1` [Example 154, {3-[4-(4-Fluoro-benzyl)-piperazine-1-sulfonyl]-4-methyl-phenyl}-acetic acid]: the negative-log EC50 (pEC50) at PPAR alpha is less than 4.00; at PPAR delta it was less than 4.00; on PPAR gamma it was 4.00 to 5.30.
For the molecule `COc1ccc(N2CCN(S(=O)(=O)c3cc(CC(=O)O)ccc3C)CC2)cc1` [Example 155, {3-[4-(4-Methoxy-phenyl)-piperazine-1-sulfonyl]-4-methyl-phenyl}-acetic acid], the pEC50 at PPAR alpha, on PPAR delta and at PPAR gamma was less than 4.00 in each case.
Take `Cc1ccc(CC(=O)O)cc1S(=O)(=O)N1CCN(c2ccc(C(C)(C)C)cc2)CC1` [Example 156, {3-[4-(4-tert-Butyl-phenyl)-piperazine-1-sulfonyl]-4-methyl-phenyl}-acetic acid]: the pEC50 on PPAR alpha is less than 4.00; at PPAR delta, 4.00 to 5.30; on PPAR gamma, 4.00 to 5.30.
